Results published in PMC12830207, “Targeting the protein–protein interaction between the CDC37 cochaperone and client kinases by an allosteric RAF dimer breaker” (The Journal of Biological Chemistry, 2025).

Experiments:
[1] = tested on: BRAF–CDC37/HSP90 chaperone complex; assay: Co-IP of BRAF-FLAG with endogenous CDC37–HSP90 chaperone complex; assay type: cell-based, human (HEK293); conditions: HEK293, 50 μM braftide, 4 h, bortezomib pretreatment, three biological replicates
Protocol: (§1) HEK293 cells were seeded at 1(10)^6 cells per well for a 6-well plate or 5(10)^6 for 10 cm dishes and incubated until 40% to 60% confluency. Transfection was carried out using a 1:3 DNA:PEI-MAX ratio in OPTI-MEM and allowed 48 h for protein expression. For peptide assays, 48 h post-transfection, cells were treated with TAT–braftide carried in OPTI-MEM at indicated concentrations. Cells were harvested in cold PBS. Harvested cells were lysed in 4% SDS or modified radioimmunoprecipitation assay (RIPA) for co-IP experiments. Quantification of total protein by the bicinchoninic acid assay was carried out according to the manufacturer's protocols (Pierce; catalog no.: 23225).
(§2) Transfected HEK293 cells were treated with the indicated treatments and harvested in cold PBS. […] Samples were analyzed via immunoblot.
(§3) Western blot band densities were quantified with ImageJ software (National Institutes of Health) and normalized to the indicated loading control. Statistical significance was determined through one-/two-way ANOVA, where indicated, followed by Tukey's honest significant difference post hoc test with corresponding p values (∗p < 0.05, ∗∗p < 0.002, ∗∗∗p < 0.0002, and ∗∗∗∗p < 0.0001). […]

CDC37–BRAF interaction = assay: Co-IP of CDC37-FLAG with BRAF-V5 in HCT116; assay type: cell-based; conditions: HCT116, 5 µM braftide, three biological replicates
Protocol: as §1, §2, §3

CRAF–CDC37 interaction = assay: NanoBiT luminescence CDC37–RAF interaction reporter assay, CRAF^SmBiT–CDC37^LgBiT; assay type: cell-based, human (HEK293); conditions: HEK293, 25 μM braftide, 4 h, 1 μM bortezomib pretreatment 5 h, 10 μM furimazine, 470 to 480 nm
From the text: NanoBiT cytomegalovirus MCS BiBiT vector, which contains a BRAF N terminal fused with LgBiT and CRAF N terminal fused with SmBiT, was purchased from Promega. CDC37 LgBiT and CRAF SmBiT was generated using the standard Gibson Assembly (NEB HiFi Assembly) using NanoBiT BiBiT as the vector and following primers: 5′ […] 3′, 5′ […] 3′, and CDC37 LgBiT and BRAF SmBiT was generated using the standard Gibson Assembly using NanoBiT BiBiT as the vector and following primers: 5′ […] 3′, 5′ […] 3′. Primers were designed to introduce H20A, N22A, I23A triple mutation within the CDC37 FLAG tag and for NanoBiT construct CDC37(HNI/A) LgBit and BRAF SmBiT. Primers were designed to introduce the desired substitutions. The forward primer sequence was 5′ gccgcc[…] […]
Twenty-four hours post-transfection, cells were trypsinized, pelleted, resuspended in OptiMEM + 4% fetal bovine serum, and reseeded onto a 96-well plate at 5(10)^4 cells per well and then incubated at 37 °C overnight. […] After treatment, 10 μM furimazine substrate was added to each well, and luminescence readings were taken at 470 to 480 nm using a CLARIOstar plate reader. Statistical significance was determined through a paired t test where indicated, followed by Tukey's honest significant difference post hoc test with corresponding p values (∗p < 0.05, ∗∗p < 0.01, and ∗∗∗p < 0.001). […]

HCT116 proteome = assay: Global proteomic identification of braftide-regulated proteins (LC–MS/MS) in HCT116; assay type: cell-based, human; conditions: HCT116, 10 μM braftide, 1 h
Protocol: HCT116 cells were treated in the absence and presence of 10 μM TAT–braftide, 1 h, 37 °C. Cell pellets were harvested in PBS and cryopreserved. Samples were sent to be lysed and identified through MS in three biological replicates (LC–MS/MS; The Wistar Institute). Data were processed through the previously reported GO analysis via the Panther database ([42]) and plotted on Origin (OriginLab Corporation). For the volcano plot, the cutoff for the presented data is p = 0.01 (∗∗), q value <0.05 (Student's t test value adjusted for multiple comparisons using the Benjamini–Hochberg false discovery rate correction) and detected in at least two or more replicates. A total of 5405 proteins were identified, emphasizing a twofold change in NeonGreen and in red. Source data are available in the supporting information files.

Substance: GRKKRRQRRRPQ-miniPEG-TRHVNILLFM [Braftide]
- association of BRAF with CDC37 and HSP90 [1]: reduced their association with CDC37 and HSP90 compared with the nontreated control
- CDC37–BRAF interaction (CDC37–BRAF interaction): decreases its association with coimmunoprecipitated BRAF-V5 and CRAF-HA
- CDC37–BRAF interaction (CDC37–BRAF interaction; listed as braftide): reduced the CDC37–RAF interaction at lower doses than in HEK293 cells
- NanoBiT luminescence, CRAF^SmBiT–CDC37^LgBiT (CRAF–CDC37 interaction): reduction in luminescence, reflecting a decrease in the CDC37–RAF interaction
- FoldChange Treat/NoTreat, COA3 (HCT116 proteome; protein COA3 (Q9Y2R0), q-value 1.02E-05, LFQ, missing values imputed): 76.35
- FoldChange Treat/NoTreat, HPX (HCT116 proteome; protein HPX (P02790), q-value 0.000814707, LFQ): 99.13
- FoldChange Treat/NoTreat, PDK2 (HCT116 proteome; protein PDK2 (Q15119), q-value 1.74E-05, LFQ, missing values imputed): 40.24
- FoldChange Treat/NoTreat, RNF169 (HCT116 proteome; protein RNF169 (Q8NCN4), q-value 4.15E-05, LFQ, missing values imputed): 48.52
- FoldChange Treat/NoTreat, TOMM6 (HCT116 proteome; protein TOMM6 (Q96B49), q-value 1.36E-06, LFQ, missing values imputed): 129.15
